# Test results reported in patent US20090093469A1, “Phenylaminopropanol Derivatives and Methods of Their Use” (WYETH, priority 2004, published 2009).
# Structures can show the parent of a compound that is named as a salt.
# Target: T1, hNET (Homo sapiens, UniProt P23975)
# T1 construct: expressed in transfected cells
# Assay: Norepinephrine (NE) uptake assay in MDCK-Net6 cells stably transfected with human hNET
# Format: cell-based
# Settings: MDCK-Net6, read-out: % Inhibition @ 1 μM (hNET)
# T1 sequence (P23975 whole entry): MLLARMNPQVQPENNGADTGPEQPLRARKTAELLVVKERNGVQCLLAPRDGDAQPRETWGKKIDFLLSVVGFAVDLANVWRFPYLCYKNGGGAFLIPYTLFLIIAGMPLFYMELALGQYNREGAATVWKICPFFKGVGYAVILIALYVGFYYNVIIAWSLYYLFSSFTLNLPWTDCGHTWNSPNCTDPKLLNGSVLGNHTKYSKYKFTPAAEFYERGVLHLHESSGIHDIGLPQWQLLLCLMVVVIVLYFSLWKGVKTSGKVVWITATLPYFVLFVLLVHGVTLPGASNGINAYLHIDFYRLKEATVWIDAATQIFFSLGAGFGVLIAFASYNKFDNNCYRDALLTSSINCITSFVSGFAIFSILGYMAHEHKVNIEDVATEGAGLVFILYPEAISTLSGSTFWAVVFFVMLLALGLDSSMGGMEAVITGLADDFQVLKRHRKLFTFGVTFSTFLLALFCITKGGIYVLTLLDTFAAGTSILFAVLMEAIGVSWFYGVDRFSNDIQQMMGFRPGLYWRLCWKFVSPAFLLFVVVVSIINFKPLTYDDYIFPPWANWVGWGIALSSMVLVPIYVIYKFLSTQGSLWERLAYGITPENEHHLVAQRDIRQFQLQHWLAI
row,SMILES,inhibition at 1 µM [%]
1,"CNC[C@@H](O)[C@H](c1ccccc1)n1c(=O)n(C(C)C)c2cccc(F)c21 [Example 201, 4-Fluoro-3-(2-hydroxy-3-methylamino-1-phenyl-propyl)-1-isopropyl-1,3-dihydro-benzimidazol-2-one hydrochloride]",98.8
2,"CNC[C@@H](O)[C@H](c1cccc(OC)c1)n1ccc2ccccc21 [Example 69, (1S,2R)-1-(1H-indol-1-yl)-1-(3-methoxyphenyl)-3-(methylamino)propan-2-ol hydrochloride]",87.5
3,"CNC[C@@H](O)[C@H](c1cccc(F)c1)n1ccc2cc(Br)ccc21 [Example 127, (1S,2R)-1-(5-bromo-1H-indol-1-yl)-1-(3-fluorophenyl)-3-(methylamino)propan-2-ol hydrochloride]",95.7
4,"CNC[C@@H](O)[C@H](c1cccc(F)c1)n1ccc2c(C)cccc21 [Example 96, ((1S,2R)-1-(3-fluorophenyl)-3-(methylamino)-1-(4-methyl-1H-indol-1-yl)propan-2-ol hydrochloride]",98.2
5,"CNC[C@@H](O)[C@H](c1cccc(F)c1)n1ccc2ccccc21 [Example 47, (1S,2R)-1-(3-fluorophenyl)-1-(1H-indol-1-yl)-3-(methylamino)propan-2-ol hydrochloride]",99.9
6,"CNC[C@H](O)[C@@H](c1ccccc1)n1ccc2cc(F)ccc21 (racemic) [Example 20, (1RS,2SR)-1-(5-fluoro-1H-indol-1-yl)-3-(methylamino)-1-phenylpropan-2-ol hydrochloride]",85
7,"CNC[C@@H](O)[C@H](c1cccc(F)c1)n1ccc2cc(Cl)ccc21 [Example 153, (1S,2R)-1-(5-chloro-1H-indol-1-yl)-1-(3-fluorophenyl)-3-(methylamino)propan-2-ol hydrochloride]",97.4

# Same assay, conditions: test compound 1 μM; [3H]NE uptake, MDCK-Net6 cells; read-out: % Inhibition @ 1 μM (hNET)
row,SMILES,inhibition at 1 µM [%]
1,"O[C@@H](CNCC1CCCCC1)[C@@H](c1ccccc1)n1ccc2ccccc21 (racemic) [Example 8, (1RS,2SR)-3-[(cyclohexylmethyl)amino]-1-(1H-indol-1-yl)-1-phenylpropan-2-ol hydrochloride]",53.4
2,"CNC[C@@H](O)[C@H](c1cccc(F)c1)n1cc(-c2ccc(C(F)(F)F)cc2)c2ccccc21 [Example 173, (1S,2R)-1-(3-fluorophenyl)-3-(methylamino)-1-{3-[4-(trifluoromethyl)phenyl]-1H-indol-1-yl}propan-2-ol hydrochloride]",67.5
3,"O[C@@H]([C@@H]1CCCN1)[C@@H](c1cccc(F)c1)n1ccc2ccccc21 [Example 105, (1S,2R)-2-(3-fluorophenyl)-2-(1H-indol-1-yl)-1-[(2S)-pyrrolidin-2-yl]ethanol hydrochloride]",92.6
4,"CCCNC[C@@H](O)[C@H](c1cccc(F)c1)n1ccc2ccccc21 [Example 57, (1S,2R)-1-(3-fluorophenyl)-1-(1H-indol-1-yl)-3-(propylamino)propan-2-ol hydrochloride]",17.5
5,"Cc1cn([C@@H](c2ccccc2)[C@H](O)CN)c2ccc(Cl)cc12 [Example 120, (1S,2R)-3-amino-1-(5-chloro-3-methyl-1H-indol-1-yl)-1-phenylpropan-2-ol hydrochloride]",68.6
6,"NC[C@@H](O)[C@H](c1cccc(F)c1)n1ccc2ccccc21 [Example 134, (1S,2R)-3-amino-1-(3-fluorophenyl)-1-(1H-indol-1-yl)propan-2-ol hydrochloride]",68.5
7,"CNC[C@@H](O)[C@H](c1cccc(F)c1)n1cc(-c2cccc(C(F)(F)F)c2)c2ccccc21 [Example 177, (1S,2R)-1-(3-fluorophenyl)-3-(methylamino)-1-{3-[3-(trifluoromethyl)phenyl]-1H-indol-1-yl}propan-2-ol hydrochloride]",29.9

# Results, then the molecule that gave them:
row,inhibition at 1 µM [%],SMILES
1,100,"CNC[C@@H](O)[C@H](c1cccc(F)c1)n1cc(-c2ccccc2OC)c2ccccc21 [Example 176, (1S,2R)-1-(3-fluorophenyl)-1-[3-(2-methoxyphenyl)-1H-indol-1-yl]-3-(methylamino)propan-2-ol hydrochloride]"
2,71.6,"CNC[C@@H](O)[C@H](c1ccccc1)n1ccc2cc(C(F)(F)F)ccc21 [Example 188, (1S,2R)-3-(methylamino)-1-phenyl-1-[5-(trifluoromethyl)-1H-indol-1-yl]propan-2-ol hydrochloride]"
3,86.1,"CNC[C@@H](O)[C@H](c1cccs1)n1ccc2ccccc21 [Example 103, (1R,2R)-1-(1H-indol-1-yl)-3-(methylamino)-1-(2-thienyl)propan-2-ol hydrochloride]"
4,86.6,"CNC[C@@H](O)[C@H](c1ccccc1)N1CCc2cccc(C)c21 [Example 66, (1S,2R)-3-(methylamino)-1-(7-methyl-2,3-dihydro-1H-indol-1-yl)-1-phenylpropan-2-ol hydrochloride]"
5,94.9,"CNC[C@@H](O)[C@H](c1ccccc1)n1ccc2c(C)cccc21 [Example 94, (1S,2R)-3-(methylamino)-1-(4-methyl-1H-indol-1-yl)-1-phenylpropan-2-ol hydrochloride]"
6,96.6,"CNC[C@@H](O)[C@H](c1ccccc1)N1C(=O)C2(CCC2)c2ccccc21 [Example 107, 1′-[(1S,2R)-2-hydroxy-3-(methylamino)-1-phenylpropyl]spiro[cyclo-butane-1,3′-indol]-2′(1′H)-one hydrochloride]"
7,86.4,"CNC[C@@H](O)[C@H](c1ccccc1)N1C(=O)C(C)(C)c2cc(F)ccc21 [Example 110, 5-fluoro-1-[(1S,2R)-2-hydroxy-3-(methylamino)-1-phenylpropyl]-3,3-dimethyl-1,3-dihydro-2H-indol-2-one hydrochloride]"
8,30.1,"CNC[C@H](O)[C@@H](c1ccccc1)n1cc(C#N)c2ccccc21 (racemic) [Example 28, 1-[(1RS,2SR)-2-hydroxy-3-(methylamino)-1-phenylpropyl]-1H-indole-3-carbonitrile hydrochloride]"
9,94.6,"CNC[C@@H](O)[C@H](c1ccccc1)N1C(=O)C(C)(C)c2c(F)cccc21 [Example 196, 4-fluoro-1-[(1S,2R)-2-hydroxy-3-(methylamino)-1-phenylpropyl]-3,3-dimethyl-1,3-dihydro-2H-indol-2-one hydrochloride]"
10,101,"CNC[C@@H](O)[C@H](c1ccc(F)cc1)n1cc(C)c2ccccc21 [Example 49, (1S,2R)-1-(4-fluorophenyl)-3-(methylamino)-1-(3-methyl-1H-indol-1-yl)propan-2-ol hydrochloride]"
11,97.1,"CNC[C@@H](O)[C@H](c1ccccc1)n1ccc2c(Cl)cccc21 [Example 146, (1S,2R)-1-(4-chloro-1H-indol-1-yl)-3-(methylamino)-1-phenylpropan-2-ol hydrochloride]"
12,91.7,"CNC[C@@H](O)[C@H](c1ccccc1)n1ccc2ccc(Cl)cc21 [Example 147, (1S,2R)-1-(6-chloro-1H-indol-1-yl)-3-(methylamino)-1-phenylpropan-2-ol hydrochloride]"
13,90.8,"CNC[C@@H](O)[C@H](c1ccccc1)n1ccc2cccc(C)c21 [Example 91, (1S,2R)-3-(methylamino)-1-(7-methyl-1H-indol-1-yl)-1-phenylpropan-2-ol hydrochloride]"
14,91.5,"CNC[C@@H](O)[C@H](c1ccccc1)n1ccc2c(Br)cccc21 [Example 124, (1S,2R)-1-(4-bromo-1H-indol-1-yl)-3-(methylamino)-1-phenylpropan-2-ol hydrochloride]"
15,98.2,"CNC[C@@H](O)[C@H](c1cccc(C#N)c1)n1ccc2ccccc21 [Example 44, 3-[(1S,2R)-2-hydroxy-1-(1H-indol-1-yl)-3-(methylamino)propyl]benzonitrile hydrochloride]"
16,70.4,"Cc1cn([C@@H](c2ccccc2)[C@H](O)CN)c2c(F)cccc12 [Example 180, (1S,2R)-3-amino-1-(7-fluoro-3-methyl-1H-indol-1-yl)-1-phenylpropan-2-ol hydrochloride]"
17,100,"CNC[C@@H](O)[C@H](c1ccccc1)N1C(=O)C2(CCCCC2)c2cccc(F)c21 [Example 112, 7′-fluoro-1′-[(1S,2R)-2-hydroxy-3-(methylamino)-1-phenylpropyl]-spiro[cyclohexane-1,3′-indol]-2′(1′H)-one hydrochloride]"
18,97.3,"CNC[C@@H](O)[C@H](c1cccc(F)c1)n1cc(-c2cccc(F)c2)c2ccccc21 [Example 116, (1S,2R)-1-(3-fluorophenyl)-1-[3-(3-fluorophenyl)-1H-indol-1-yl]-3-(methylamino)propan-2-ol hydrochloride]"
19,11.3,"CCNC[C@H](O)[C@@H](c1ccccc1)n1ccc2cc(F)ccc21 (racemic) [Example 18, (1RS,2SR)-3-(ethylamino)-1-(5-fluoro-1H-indol-1-yl)-1-phenylpropan-2-ol hydrochloride]"
20,13.1,"CC(C)NC[C@H](O)[C@@H](c1ccccc1)n1ccc2ccccc21 (racemic) [Example 6, (1RS,2SR)-1-(1H-indol-1-yl)-3-(isopropylamino)-1-phenylpropan-2-ol hydrochloride]"
21,73.1,"CNC[C@@H](O)[C@H](c1ccccc1)n1ccc2ccc(C)cc21 [Example 90, (1S,2R)-3-(methylamino)-1-(6-methyl-1H-indol-1-yl)-1-phenylpropan-2-ol hydrochloride]"
22,58,"CNC[C@@H](O)[C@H](c1cccc(F)c1)n1ccc2ccc(OC)cc21 [Example 81, (1S,2R)-1-(3-fluorophenyl)-1-(6-methoxy-1H-indol-1-yl)-3-(methyl-amino)propan-2-ol hydrochloride]"

# Same assay, conditions: test compound 10 μM (stated in cell); [3H]NE uptake, MDCK-Net6 cells
row,inhibition at 10 µM [%],SMILES
1,79.2,"Cc1cn([C@H](c2ccccc2)[C@@H](O)CNCC2CCCCC2)c2ccccc12 (racemic) [Example 9, (1RS,2SR)-3-[(cyclohexylmethyl)amino]-1-(3-methyl-1H-indol-1-yl)-1-phenylpropan-2-ol hydrochloride]"
